Values of other authors, collected in patent US6685969B2, “Treatment for ectoparasites” (Schering-Plough HealthCare Products, Inc., priority 2001, dated 2004).

Test system: Head Lice
Details: comparison of published results

**Q.** With `CC1(C)C(C=C(Cl)Cl)C1C(=O)OCc1cccc(Oc2ccccc2)c1` (stereo not shown) [Permethrin] as the compound, how does the “Evidence of efficacy among topical pesticidal treatments” value read?
**A.** sufficient evidence of efficacy
